Measurements: ChEMBL document CHEMBL1151375, “Potential antitumor agents. XVII. physalin B and 25,26-epidihydrophysalin C from Witheringia coccoloboides” (1981)
In brackets after ≈: the same amount, converted by molar mass.

Tests used:
Assay type in all cases: functional
[1] = Cytotoxicity against human 9KB cells; details: read-out: ED50 (the source's name)
[2] = Cytotoxicity against mouse 9PS cells; details: read-out: ED50 (the source's name)
[3] = In vivo cytotoxicity against mouse 3PS cells at 300 mg/kg

## C[C@@H]1C(=O)O[C@@H]2C[C@@]1(C)[C@@H]1C(=O)[C@]3(O)O[C@]14[C@@]2(C)OC(=O)[C@@]4(O)CC[C@H]1[C@H]3CC=C2CC=CC(=O)[C@@]21C
[1]
  EC50: 12 µg/mL (≈ 23.4 µM)
[2]
  EC50: 0.89 µg/mL (≈ 1.74 µM)

## C[C@@]12C[C@H]3OC(=O)[C@@H]1CO[C@]14O[C@@]5([C@H]2C1=O)[C@@]3(C)OC(=O)[C@@]5(O)CC[C@H]1[C@H]4C[C@@H]2O[C@@]23CC=CC(=O)[C@]13C [5-ALPHA,6-ALPHA-EPOXYPHYSALIN B]
[1]
  EC50: 0.43 µg/mL (≈ 0.817 µM)
[2]
  EC50: 1.6 µg/mL (≈ 3.04 µM)

## C[C@]12C(=O)C=CCC1=CC[C@@H]1[C@@H]2CC[C@]2(O)C(=O)O[C@@]3(C)[C@H]4C[C@]5(C)[C@@H](CO[C@@]16O[C@@]32[C@H]5C6=O)C(=O)O4 [PHYSALIN B]
[3]
  T/C: 137%
[1]
  EC50: 3.1 µg/mL (≈ 6.07 µM)
[2]
  EC50: 0.01 µg/mL (≈ 0.0196 µM)
